This is an account of results in ChEMBL document CHEMBL1143303 (Bioorg Med Chem Lett, 2009).

Assay [1] addresses DNA (cytosine-5)-methyltransferase 1 (Homo sapiens) (UniProt P26358). The assay is described as follows: Inhibition of C1226 catalytic site of DNMT1.
Assay [2] has the same target. Description: Inhibition of C1226 catalytic site of DNMT1 in presence of S-adenosyl methionine.
In assay [3] the target is Orphan methyltransferase M.SssI (Spiroplasma monobiae) (UniProt P15840). The assay is described as follows: Inhibition of Spiroplasma sp. MQ-1 M.SssI up to 100 uM.
For assay [4], the target named is Orphan methyltransferase M.SssI (Spiroplasma monobiae, UniProt P15840). Description: (§1) Inhibition of Spiroplasma sp. MQ-1 M.SssI.
In assay [5] the test system is MV4-11. The assay is described as follows: Induction of global DNA hypomethylation in human MV411 cells at 1 uM after 72 hrs by LC-MS/MS analysis relative to control. In kind it is functional, cell-based.
In assay [6] the target is Orphan methyltransferase M.SssI (Spiroplasma monobiae) (UniProt P15840). The description is as §1.
Assay [7] deals with MV4-11. Description: Decrease in global DNA methylation in human MV411 cells at 3 uM after 72 hrs by LC-MS/MS analysis relative to control. Also noted: scale not given: the % may be the effect or the level left. In kind it is functional.
Assay [8] deals with MV4-11. The assay is described as follows: Decrease in global DNA methylation in human MV411 cells at 30 uM after 72 hrs by LC-MS/MS analysis relative to control. In kind it is functional. Details: scale not given: the % may be the effect or the level left.

Each structure is given as a SMILES string. Calls of active or inactive are those of the source. The calls are words filed in the database; no cut-off is given here.

DNA (cytosine-5)-methyltransferase 1 (Homo sapiens), sequence (P26358 whole entry): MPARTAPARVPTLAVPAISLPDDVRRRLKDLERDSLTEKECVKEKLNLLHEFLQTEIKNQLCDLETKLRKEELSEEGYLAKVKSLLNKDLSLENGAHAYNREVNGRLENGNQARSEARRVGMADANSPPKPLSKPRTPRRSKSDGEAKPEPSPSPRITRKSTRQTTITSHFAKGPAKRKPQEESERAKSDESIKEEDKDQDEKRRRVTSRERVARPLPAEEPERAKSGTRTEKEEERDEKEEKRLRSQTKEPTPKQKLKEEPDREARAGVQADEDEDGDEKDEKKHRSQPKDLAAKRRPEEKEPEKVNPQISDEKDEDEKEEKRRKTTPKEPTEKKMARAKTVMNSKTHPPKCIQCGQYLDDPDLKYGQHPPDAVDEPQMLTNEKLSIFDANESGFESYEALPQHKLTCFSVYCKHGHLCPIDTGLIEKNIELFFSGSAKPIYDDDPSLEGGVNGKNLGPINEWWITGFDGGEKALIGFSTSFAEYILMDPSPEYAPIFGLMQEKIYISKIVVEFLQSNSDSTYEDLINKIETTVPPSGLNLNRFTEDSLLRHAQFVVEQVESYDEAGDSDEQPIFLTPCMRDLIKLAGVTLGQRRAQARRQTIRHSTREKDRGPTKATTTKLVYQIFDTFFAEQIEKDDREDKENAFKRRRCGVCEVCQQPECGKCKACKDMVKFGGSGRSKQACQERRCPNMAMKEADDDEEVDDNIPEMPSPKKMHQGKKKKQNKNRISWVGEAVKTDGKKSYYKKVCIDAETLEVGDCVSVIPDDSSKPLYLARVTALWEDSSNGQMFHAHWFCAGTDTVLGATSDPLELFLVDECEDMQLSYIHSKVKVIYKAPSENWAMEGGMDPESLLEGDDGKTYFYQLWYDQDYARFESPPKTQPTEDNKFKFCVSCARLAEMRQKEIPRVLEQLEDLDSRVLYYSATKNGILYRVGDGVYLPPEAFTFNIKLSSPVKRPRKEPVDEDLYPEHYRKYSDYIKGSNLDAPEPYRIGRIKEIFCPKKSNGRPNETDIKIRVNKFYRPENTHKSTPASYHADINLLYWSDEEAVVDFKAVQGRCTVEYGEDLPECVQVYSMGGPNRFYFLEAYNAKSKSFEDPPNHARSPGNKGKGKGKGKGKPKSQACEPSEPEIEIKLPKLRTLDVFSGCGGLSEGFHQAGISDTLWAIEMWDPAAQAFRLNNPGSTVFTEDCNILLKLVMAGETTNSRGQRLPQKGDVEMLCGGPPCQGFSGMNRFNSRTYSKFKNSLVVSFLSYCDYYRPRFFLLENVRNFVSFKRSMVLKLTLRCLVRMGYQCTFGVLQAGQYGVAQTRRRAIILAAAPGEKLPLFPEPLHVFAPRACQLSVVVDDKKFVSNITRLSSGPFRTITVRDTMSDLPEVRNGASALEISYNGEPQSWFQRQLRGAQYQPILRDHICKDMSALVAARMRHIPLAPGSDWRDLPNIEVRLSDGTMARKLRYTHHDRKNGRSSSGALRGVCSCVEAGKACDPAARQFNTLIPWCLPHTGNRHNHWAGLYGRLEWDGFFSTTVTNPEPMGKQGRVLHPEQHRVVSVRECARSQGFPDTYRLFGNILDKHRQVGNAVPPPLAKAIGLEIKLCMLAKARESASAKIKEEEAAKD
Orphan methyltransferase M.SssI, sequence (P15840 whole entry): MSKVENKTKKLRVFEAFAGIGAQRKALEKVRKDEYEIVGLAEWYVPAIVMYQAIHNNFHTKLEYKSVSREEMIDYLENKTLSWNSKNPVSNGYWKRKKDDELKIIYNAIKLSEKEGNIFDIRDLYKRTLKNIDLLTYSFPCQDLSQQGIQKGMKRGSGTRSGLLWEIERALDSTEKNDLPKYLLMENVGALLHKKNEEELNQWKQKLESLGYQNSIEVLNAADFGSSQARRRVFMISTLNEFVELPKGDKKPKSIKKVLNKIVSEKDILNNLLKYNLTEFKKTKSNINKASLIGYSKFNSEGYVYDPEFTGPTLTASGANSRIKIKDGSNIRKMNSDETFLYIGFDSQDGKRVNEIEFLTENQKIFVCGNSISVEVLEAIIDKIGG
Orphan methyltransferase M.SssI (Spiroplasma monobiae), sequence (P15840 whole entry): as above

`COc1cc(CCC(=O)CC(=O)CCc2ccc(O)c(OC)c2)ccc1O`: the result in assay [1] and in assay [2] was Active.

Take `COc1cc(CCC(=O)CC(O)CCc2ccc(O)c(OC)c2)ccc1O` (centres undefined): the result in assay [1] and in assay [2] was Active. The outcome in assay [3] was inactive.

Turning to `COc1cc(/C=C/C(O)=C/C(=O)/C=C/c2ccc(O)cc2)ccc1O` [DEMETHOXYCURCUMIN], the outcome in assay [1] was Active. For the same compound, in assay [4], the IC50 (commonly the concentration that gives 50% inhibition) is 30 nM.

With `O=C(/C=C/c1ccc(O)cc1)CC(=O)/C=C/c1ccc(O)cc1` [BISDEMETHOXYCURCUMIN], in assay [1], the result was Active. For the same compound, the IC50 in assay [4] was found to be 30 nM.

Consider `COc1cc(/C=C/C(=O)CC(=O)/C=C/c2ccc(O)c(OC)c2)ccc1O` [CURCUMIN], for which the result in assay [1] was Active. Moreover, in the assay with MV4-11 [5], the result was inactive. Besides, the Activity entry is “Dose-dependent effect” in assay [6], 15% with MV4-11 [7] and 15% in the assay on MV4-11 [8].
